One may read the pEC50 as the negative decadic logarithm of the EC50, by convention in mol/L.

pEC50: −log10 of the molar value.

The target in this assay is human NAMPT (Homo sapiens (Human), UniProt P43490). As to the kind of experiment: NMN fluorescence biochemical assay (human recombinant NAMPT enzyme assay). The method in brief: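 Activation of recombinant human NAMPT (6 nM) was tested with 2.5 mM ATP, 20 μM PRPP and 150 μM nicotinamide in 50 mM HEPES pH 7.2 for 60 min at ambient temperature. NMN was derivatized with acetophenone/KOH/formic acid and read by fluorescence (355/460 nm) after 40 min.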
Sequence of human NAMPT (P43490 whole entry): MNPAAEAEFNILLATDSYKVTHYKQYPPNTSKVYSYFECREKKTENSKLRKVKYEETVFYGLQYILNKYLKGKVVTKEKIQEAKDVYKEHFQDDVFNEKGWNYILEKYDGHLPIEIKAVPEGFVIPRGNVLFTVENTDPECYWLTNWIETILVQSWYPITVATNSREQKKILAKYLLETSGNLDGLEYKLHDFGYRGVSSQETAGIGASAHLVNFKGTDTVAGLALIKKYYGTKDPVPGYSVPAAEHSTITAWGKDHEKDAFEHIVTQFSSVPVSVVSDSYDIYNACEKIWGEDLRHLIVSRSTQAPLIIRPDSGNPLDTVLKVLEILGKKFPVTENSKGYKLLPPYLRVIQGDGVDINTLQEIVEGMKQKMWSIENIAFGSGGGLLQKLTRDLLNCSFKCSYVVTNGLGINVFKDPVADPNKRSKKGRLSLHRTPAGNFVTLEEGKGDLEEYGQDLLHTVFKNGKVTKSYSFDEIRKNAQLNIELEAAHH
`CC(C)c1ccc(C(=O)N[C@@H](C)c2ccc(NC(=O)OCc3ccc(Cl)cc3)cc2)cn1` [Compound 163, (4-chlorophenyl)methyl N-{4-[(1S)-1-[(6-isopropylpyridin-3-yl)formamido]ethyl]phenyl}carbamate]: the “AC1.4 Human” value worked out at 1.37 µM and the pEC50 was 6.17.
Take `C[C@H](NC(=O)c1ccc(C(F)F)nc1)c1ccc(NC(=O)OCc2ccc(Cl)cc2)cc1` [Compound 164, (4-chlorophenyl)methyl N-{4-[(1S)-1-{[6-(difluoromethyl)pyridin-3-yl]formamido}ethyl]phenyl}carbamate]: the “AC1.4 Human” value was 1.38 µM and the pEC50 is 5.80.
The corresponding values for `Cc1cc(C)c(C(=O)NCc2ccc(NC(=O)OCc3ccc(Cl)cc3)cc2)cn1` [Compound 165] are 1.38 µM and 5.12.
The like results for `COCCn1nccc1C(=O)NCc1ccc(NC(=O)OCc2ccc(Cl)cc2)cc1` [Compound 166, (4-chlorophenyl)methyl N-[4-({[2-(2-methoxyethyl)pyrazol-3-yl]formamido}methyl)phenyl]carbamate] were, in that order, 1.38 µM and 5.23.
Take `CCn1nccc1C(=O)NCc1ccc(NC(=O)OCc2ccc(Cl)cc2)cc1` [Compound 167, (4-chlorophenyl)methyl N-(4-{[(2-ethylpyrazol-3-yl)formamido]methyl}phenyl)carbamate]: the “AC1.4 Human” value is 1.39 µM and the pEC50 is 5.34.
`COc1ccc(COC(=O)Nc2ccc(CN3CCN(C)CC3=O)cc2)cc1` [Compound 168, (4-methoxyphenyl)methyl N-{4-[(4-methyl-2-oxopiperazin-1-yl)methyl]phenyl}carbamate]: the “AC1.4 Human” value amounted to 1.40 µM and the negative logarithm of the EC50 (pEC50) is 4.86.
The like results for `O=C(Nc1ccc(Cc2ccncc2)cc1)OCc1ccncc1` [Compound 169, pyridin-4-ylmethyl (4-(pyridin-4-ylmethyl)phenyl)carbamate] were, in that order, 1.41 µM and 5.21.
The corresponding values for `COC1CN(C(=O)N[C@@H](C)c2ccc(NC(=O)OCc3ccc(Cl)cc3)cc2)C1` [Compound 170, (4-chlorophenyl)methyl N-{4-[(1S)-1-(3-methoxyazetidine-1-carbonylamino)ethyl]phenyl}carbamate] are 1.41 µM and 5.03.
Consider `O=C(Nc1ccc(CC(=O)N2CCC[C@H](O)C2)cc1)OCc1ccc(Cl)cc1` [Compound 171, 4-chlorobenzyl (S)-(4-(2-(3-hydroxypiperidin-1-yl)-2-oxoethyl)phenyl)carbamate], for which the “AC1.4 Human” value is 1.43 µM and the pEC50 is 5.01.
With `O=C(Nc1ccc(Cc2cccnc2)cc1)OCc1ccc(Cl)cc1` [Compound 172, 4-chlorobenzyl (4-(pyridin-3-ylmethyl)phenyl)carbamate], the “AC1.4 Human” value is 1.43 µM and the pEC50 is 5.45.
The corresponding values for `Cc1cc(C(=O)NCc2ccc(NC(=O)OCc3ccc(Cl)cc3)cc2)ccn1` [Compound 173, (4-chlorophenyl)methyl N-(4-{[(2-methylpyridin-4-yl)formamido]methyl}phenyl)carbamate] are 1.46 µM and 5.36.
For the compound `COc1ccc(COC(=O)Nc2ccc(CN3CCOCC3=O)cc2)cc1` [Compound 174, (4-methoxyphenyl)methyl N-{4-[(3-oxomorpholin-4-yl)methyl]phenyl}carbamate], the “AC1.4 Human” value is 1.47 µM and the pEC50 is 4.55.
The corresponding values for `O=C(Nc1ccc(CNC(=O)c2cncnc2)cc1)OCc1ccc(Cl)cc1` [Compound 175, (4-chlorophenyl)methyl N-{4-[(pyrimidin-5-ylformamido)methyl]phenyl}carbamate] are 1.47 µM and 5.05.
The like results for `CCc1ncoc1C(=O)N(C)Cc1ccc(NC(=O)OCc2ccc(Cl)cc2)cc1` [Compound 176, (4-chlorophenyl)methyl N-(4-{[1-(4-ethyl-1,3-oxazol-5-yl)-N-methylformamido]methyl}phenyl)carbamate] were, in that order, 1.47 µM and 5.34.
The corresponding values for `CC(C)(O)CN1CCN(Cc2ccc(NC(=O)OCc3ccc(Cl)cc3)cc2)CC1` [Compound 177, 4-chlorobenzyl (4-((4-(2-hydroxy-2-methylpropyl)piperazin-1-yl)methyl)phenyl)carbamate] are 1.49 µM and 4.42.
As for `CN1CCN(C(=O)Cc2ccc(NC(=O)OCc3ccc(Cl)cc3)cc2)C2CC21` (stereo not shown) [Compound 178, 4-chlorobenzyl (4-(2-(5-methyl-2,5-diazabicyclo[4.1.0]heptan-2-yl)-2-oxoethyl)phenyl)carbamate], the “AC1.4 Human” value is 1.50 µM and the pEC50 was 4.83.
The like results for `CC1(C(=O)NCc2ccc(NC(=O)OCc3ccc(Cl)cc3)cc2)COC1` [Compound 179, (4-chlorophenyl)methyl N-(4-{[(3-methyloxetan-3-yl)formamido]methyl}phenyl)carbamate] were, in that order, 1.50 µM and 4.65.
The corresponding values for `O=C(Nc1ccc(CN2CC3CC3C2=O)cc1)OCc1ccc(Cl)cc1` (stereo not shown) [Compound 180, (4-chlorophenyl)methyl N-[4-({2-oxo-3-azabicyclo[3.1.0]hexan-3-yl}methyl)phenyl]carbamate] are 1.52 µM and 4.82.
The corresponding values for `CC(C)n1nccc1C(=O)N[C@@H](C)c1ccc(NC(=O)OCc2ccc(Cl)cc2)cc1` [Compound 181, (4-chlorophenyl)methyl N-{4-[(1S)-1-[(2-isopropylpyrazol-3-yl)formamido]ethyl]phenyl}carbamate] are 1.53 µM and 4.81.
With `Cc1nc(C)c(C(=O)N(C)Cc2ccc(NC(=O)OCc3ccc(Cl)cc3)cc2)o1` [Compound 182, (4-chlorophenyl)methyl N-(4-{[1-(2,4-dimethyl-1,3-oxazol-5-yl)-N-methylformamido]methyl}phenyl)carbamate], the “AC1.4 Human” value amounted to 1.54 µM and the pEC50 was 4.96.
The corresponding values for `CC1(C)CCN1C(=O)Cc1ccc(NC(=O)OCc2ccc(Cl)cc2)cc1` [Compound 183, (4-chlorophenyl)methyl N-{4-[2-(2,2-dimethylazetidin-1-yl)-2-oxoethyl]phenyl}carbamate] are 1.57 µM and 4.82.
In the case of `COC1CCN(C(=O)NCc2ccc(NC(=O)OCc3ccc(Cl)cc3)cc2)CC1` [Compound 184, (4-chlorophenyl)methyl N-{4-[(4-methoxypiperidine-1-carbonylamino)methyl]phenyl}carbamate], the “AC1.4 Human” value amounted to 1.58 µM and the pEC50 is 4.83.
The corresponding values for `O=C(Nc1ccc(CNC(=O)c2ccc(C(F)F)nc2)cc1)OCc1ccc(Cl)cc1` [Compound 185, (4-chlorophenyl)methyl N-[4-({[6-(difluoromethyl)pyridin-3-yl]formamido}methyl)phenyl]carbamate] are 1.59 µM and 5.69.
The like results for `Cc1ccc(Cc2ccc(NC(=O)OCc3ccncc3)cc2)cn1` [Compound 186, pyridin-4-ylmethyl (4-((6-methylpyridin-3-yl)methyl)phenyl)carbamate] were, in that order, 1.61 µM and 5.47.
The corresponding values for `O=C(Nc1ccc(CNC(=O)c2cnco2)cc1)OCc1ccc(Cl)cc1` [Compound 187, (4-chlorophenyl)methyl N-{4-[(1,3-oxazol-5-ylformamido)methyl]phenyl}carbamate] are 1.62 µM and 4.95.
As for `Cc1nn(C)c(C(=O)N(C)Cc2ccc(NC(=O)OCc3ccc(Cl)cc3)cc2)c1F` [Compound 188, (4-chlorophenyl)methyl N-(4-{[1-(4-fluoro-2,5-dimethylpyrazol-3-yl)-N-methylformamido]methyl}phenyl)carbamate], the “AC1.4 Human” value was 1.62 µM and the pEC50 was 5.16.
The like results for `C[C@H](NC(=O)C1(C)COC1)c1ccc(NC(=O)OCc2ccc(Cl)cc2)cc1` [Compound 189, 4-chlorobenzyl (S)-(4-(1-(3-methyloxetane-3-carboxamido)ethyl)phenyl)carbamate] were, in that order, 1.64 µM and 4.73.
The like results for `Cc1noc(C(=O)N(C)Cc2ccc(NC(=O)OCc3ccc(Cl)cc3)cc2)c1C` [Compound 190, (4-chlorophenyl)methyl N-(4-{[1-(3,4-dimethyl-1,2-oxazol-5-yl)-N-methylformamido]methyl}phenyl)carbamate] were, in that order, 1.64 µM and 5.05.
The like results for `CC(=O)N1CCN(Cc2ccc(NC(=O)OCc3ccc(Cl)cc3)cc2)CC1` [Compound 191, (4-chlorophenyl)methyl N-{4-[(4-acetylpiperazin-1-yl)methyl]phenyl}carbamate] were, in that order, 1.69 µM and 4.66.
For `Cc1ncccc1C(=O)NCc1ccc(NC(=O)OCc2ccc(Cl)cc2)cc1` [Compound 192, (4-chlorophenyl)methyl N-(4-{[(2-methylpyridin-3-yl)formamido]methyl}phenyl)carbamate], the “AC1.4 Human” value amounted to 1.70 µM and the pEC50 was 5.19.
As to `Cn1cc(C(=O)NCc2ccc(NC(=O)OCc3ccc(Cl)cc3)cc2)cn1` [Compound 193, (4-chlorophenyl)methyl N-(4-{[(1-methylpyrazol-4-yl)formamido]methyl}phenyl)carbamate], the “AC1.4 Human” value was determined as 1.71 µM and the pEC50 was 4.90.
As for `O=C(Nc1ccc(CC(=O)N2CCN(C3COC3)CC2)cc1)OCc1ccc(Cl)cc1` [Compound 194, (4-chlorophenyl)methyl N-(4-{2-[4-(oxetan-3-yl)piperazin-1-yl]-2-oxoethyl}phenyl)carbamate], the “AC1.4 Human” value worked out at 1.73 µM and the pEC50 was 4.57.

Values taken from US20240279215A1 (Cytokinetics, Incorporated, priority 2022, published 2024).
